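Method: 48-hour compound exposure of cells in 96-well plates, five concentrations, linear interpolation of endpoints. GI50 = concentration required for 50% inhibition of growth.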 Active and inactive are the calls of the source. Rule as the data show it: active = GI50 up to about 1.1 µM and inactive = higher. Where a SMILES comes first, the peptide text is derived from it. [ ]: non-standard residue; d: D form. The star is where a group is joined. NMeF = CN[C@@H](Cc1ccccc1)C(=O)O; NMeV = CN[C@H](C(=O)O)C(C)C; Boc = CC(C)(C)OC(=O)*; OBn = c1ccc(CO*)cc1

This is an account of results in ChEMBL document CHEMBL1201862, “PubChem BioAssay data set” (2004).

What all share (experiment): NCI anticancer screen, dose series, 48 h
The test system of assay [1] is PC-3.
The test system of assay [2] is NCI-H460.
In assay [3] the test system is NCI/ADR-RES.
Assay [4] relates to DU-145.
Assay [5] deals with ACHN.
Assay [6] relates to Hs-578T.
Assay [7] deals with IGROV-1.
The test system of assay [8] is NCI-H226.
The subject of assay [9] is SR.
Assay [10] concerns A498.
For assay [11], the system named is MCF7.
Assay [12] concerns SNB-19.
Assay [13] concerns K562.
Assay [14] deals with SK-OV-3.
Assay [15] concerns SF-268.
In assay [16] the test system is U-251.
Assay [17] has as its system HL-60.
For assay [18], the system named is A549.
For assay [19], the system named is OVCAR-8.
For assay [20], the system named is Malme-3M.

In the case of `CC(C)[C@@H](C(=O)N1CCC[C@H]1C(=O)OCc1ccccc1)N(C)C(=O)[C@H](C(C)C)N(C)C(=O)[C@H](Cc1ccccc1)N(C)C(=O)[C@H](NC(=O)OC(C)(C)C)C(C)C` (Boc-[dV][NMeF][NMeV][NMeV]P-OBn), the GI50 in assay [1], in assay [2], in assay [3], in assay [4], in [5] and in assay [6] was > 50 µM (inactive) throughout. The GI50 is > 50 µM (inactive) in [7]; > 50 µM (inactive) in assay [8]; 18.6 µM (inactive) in [9]; > 50 µM (inactive) in assay [10]; > 50 µM (inactive) in assay [11]; > 50 µM (inactive) in assay [12]. Besides, the GI50 in assay [13], in assay [14], in assay [15], in assay [16], in assay [17] and in assay [18] was > 50 µM (inactive) throughout.

As to `COc1ccc(-c2coc3c4c(ccc3c2=O)OCO4)cc1OC`, the GI50 is 38 µM (inactive) in assay [19]; > 100 µM (inactive) in [1]; 57.8 µM (inactive) in assay [2]; 35.8 µM (inactive) in assay [3]; > 100 µM (inactive) in [4]; 49.2 µM (inactive) in assay [5]. Further, the GI50 was 26.4 µM (inactive) in [6]; 44.4 µM (inactive) in [7]; 76.7 µM (inactive) in assay [8]; 8.87 µM (inactive) in assay [9]; > 100 µM (inactive) in assay [10]; 91 µM (inactive) in assay [11]. For the same molecule, the GI50 in assay [12] was 29 µM (inactive); in [13] it was 7.6 µM (inactive); in assay [14], 24.4 µM (inactive); in assay [15] it was 34 µM (inactive); in assay [16] it was 37.2 µM (inactive); in assay [17], 14.3 µM (inactive). For the same molecule, in assay [18], the GI50 was 55.6 µM (inactive).

For the molecule `CC1=NN(c2nc(N)nc(/C(C#N)=C/c3cccn3-c3cc(Cl)cc(Cl)c3)n2)C(C)(C)C1`, the GI50 in [19] was 12 µM (inactive); in assay [1] it was 11.5 µM (inactive); in assay [2], > 100 µM (inactive); in assay [3], > 100 µM (inactive); in assay [20], > 100 µM (inactive); in assay [4] it was > 100 µM (inactive). Also, the GI50 in assay [5] is > 100 µM (inactive); in assay [6], 32.9 µM (inactive); in [7] it was > 100 µM (inactive); in assay [8], > 100 µM (inactive); in assay [9], 1.42 µM (inactive); in [10] it was > 100 µM (inactive). In addition, the GI50 in [11] is > 100 µM (inactive); in assay [12], 40.6 µM (inactive); in assay [14] it was > 100 µM (inactive); in assay [15] it was 15.5 µM (inactive); in assay [16] it was 7.82 µM (inactive); in assay [17], 14.8 µM (inactive). In addition, the GI50 in [18] is > 100 µM (inactive).

On to `CCOc1cc2c(cc1O)CC[C@@H]1[C@@H]2CC[C@]2(C)[C@@H](O)CC[C@@H]12`, for which the GI50 in assay [19] was 0.109 µM (active); in [1], 1.62 µM (inactive); in [2], 0.0228 µM (active); in [3], 0.0173 µM (active); in assay [4], 0.0547 µM (active); in assay [5] it was 0.0123 µM (active). For the same molecule, the GI50 was 0.0306 µM (active) in [6]; 1.18 µM (inactive) in assay [7]; 0.423 µM (active) in [8]; < 0.0192 µM (active) in assay [9]; 2.09 µM (inactive) in [10]; 0.0287 µM (active) in assay [11]. Moreover, the GI50 is 0.0334 µM (active) in assay [12]; < 0.0171 µM (active) in assay [13]; 0.138 µM (active) in [14]; 0.0612 µM (active) in assay [15]; 0.0803 µM (active) in [16]; 0.014 µM (active) in assay [17]. Besides, in assay [18], the GI50 is 0.0378 µM (active).

In the case of `COc1ccc(CCNC(=O)Cc2cc(OC)c(OC)cc2CO)cc1OC`, the GI50 in assay [19], in assay [1], in [2], in assay [3], in [4] and in assay [5] was > 100 µM (inactive) each time. The GI50 in assay [6], in [7], in [8], in [9], in assay [10] and in assay [11] was > 100 µM (inactive) throughout. Further, the GI50 in [13], in [14], in assay [15], in assay [16], in [17] and in assay [18] was > 100 µM (inactive) each time.

With `COC(=O)c1c(C(=O)OC)c2c3ccccc3n(C)c2c2c1c1ccccc1n2C`, the GI50 in [19] was > 100 µM (inactive); in assay [1], 54.6 µM (inactive); in assay [2], > 100 µM (inactive); in assay [3] it was > 100 µM (inactive); in assay [20] it was 89.9 µM (inactive); in assay [4], > 100 µM (inactive). Moreover, the GI50 was > 100 µM (inactive) in assay [5]; > 100 µM (inactive) in [6]; 16.9 µM (inactive) in assay [7]; > 100 µM (inactive) in assay [8]; > 100 µM (inactive) in [9]; 95.1 µM (inactive) in assay [10]. Besides, the GI50 in assay [11] was > 100 µM (inactive); in assay [12], 27.6 µM (inactive); in assay [13], > 100 µM (inactive); in assay [14], 50.2 µM (inactive); in assay [16], 28.1 µM (inactive); in assay [18], 65.2 µM (inactive).

On to `COC(=O)CC(C#N)(OP1(=O)OC(c2ccccc2)C(C)N1C)c1ccccc1` (centres undefined), for which the GI50 is 22.8 µM (inactive) in [19]; 37 µM (inactive) in [1]; 20.4 µM (inactive) in [2]; 40.1 µM (inactive) in assay [3]; 41.8 µM (inactive) in [20]; 32.4 µM (inactive) in [4]. Moreover, the GI50 was 25.9 µM (inactive) in assay [5]; 30.3 µM (inactive) in [6]; 34.4 µM (inactive) in assay [7]; 25.9 µM (inactive) in assay [9]; 44.6 µM (inactive) in assay [10]; 28.2 µM (inactive) in assay [11]. For the same molecule, the GI50 in assay [12] was 39.3 µM (inactive); in [13], 24.3 µM (inactive); in assay [14] it was 40.5 µM (inactive); in assay [15], 30.3 µM (inactive); in [16] it was 23.1 µM (inactive); in assay [17], 23.8 µM (inactive). Moreover, in [18], the GI50 was 34.3 µM (inactive).

Take `CN(C)Cc1cc(C(=O)/C=C/c2ccccc2)cc(CN(C)C)c1O`: the GI50 was 27 µM (inactive) in [19]; 12.6 µM (inactive) in assay [1]; 15.9 µM (inactive) in assay [2]; 26.5 µM (inactive) in assay [3]; 22.6 µM (inactive) in assay [20]; 33 µM (inactive) in [4]. Also, the GI50 was 15.8 µM (inactive) in assay [5]; 36.1 µM (inactive) in assay [6]; 31.9 µM (inactive) in assay [7]; 27.9 µM (inactive) in assay [8]; 19.7 µM (inactive) in assay [9]; 21.8 µM (inactive) in [10]. Also, the GI50 in assay [11] was 30.8 µM (inactive); in [12] it was 29.1 µM (inactive); in assay [13] it was 14.2 µM (inactive); in assay [15] it was 32.5 µM (inactive); in assay [16], 35.3 µM (inactive); in assay [17] it was 15.5 µM (inactive). In assay [18], the GI50 is 23.4 µM (inactive).
